In publication PMC4170002 (Journal of immunology (Baltimore, Md. : 1950), 2014):
Where “and” joins values, the source holds several entries; their conditions need not be identical. Equal entries are not always repeated. Entries after “also recorded” stand apart in the source; their conditions may differ.

Assays:
CD4+ T cells = assay: CD4+ T cell proliferation; type: cell-based, mouse; settings: anti-CD28/anti-TCR, 4 days
IFN-α signaling = assay: HEK-BLUE IFN-α/β SEAP reporter assay; type: cell-based; settings: HEK-BLUE IFN-α/β cells, 200 U IFN-α, 24 hours
JAK1 [1] = biological target: T1, JAK1 (Homo sapiens, UniProt P23458); assay: 33P-ATP kinase assay, JAK1; type: biochemical; settings: read-out: IC50 JAK1; 33P-ATP assay, 10 μM ATP
T1 sequence (P23458 whole entry): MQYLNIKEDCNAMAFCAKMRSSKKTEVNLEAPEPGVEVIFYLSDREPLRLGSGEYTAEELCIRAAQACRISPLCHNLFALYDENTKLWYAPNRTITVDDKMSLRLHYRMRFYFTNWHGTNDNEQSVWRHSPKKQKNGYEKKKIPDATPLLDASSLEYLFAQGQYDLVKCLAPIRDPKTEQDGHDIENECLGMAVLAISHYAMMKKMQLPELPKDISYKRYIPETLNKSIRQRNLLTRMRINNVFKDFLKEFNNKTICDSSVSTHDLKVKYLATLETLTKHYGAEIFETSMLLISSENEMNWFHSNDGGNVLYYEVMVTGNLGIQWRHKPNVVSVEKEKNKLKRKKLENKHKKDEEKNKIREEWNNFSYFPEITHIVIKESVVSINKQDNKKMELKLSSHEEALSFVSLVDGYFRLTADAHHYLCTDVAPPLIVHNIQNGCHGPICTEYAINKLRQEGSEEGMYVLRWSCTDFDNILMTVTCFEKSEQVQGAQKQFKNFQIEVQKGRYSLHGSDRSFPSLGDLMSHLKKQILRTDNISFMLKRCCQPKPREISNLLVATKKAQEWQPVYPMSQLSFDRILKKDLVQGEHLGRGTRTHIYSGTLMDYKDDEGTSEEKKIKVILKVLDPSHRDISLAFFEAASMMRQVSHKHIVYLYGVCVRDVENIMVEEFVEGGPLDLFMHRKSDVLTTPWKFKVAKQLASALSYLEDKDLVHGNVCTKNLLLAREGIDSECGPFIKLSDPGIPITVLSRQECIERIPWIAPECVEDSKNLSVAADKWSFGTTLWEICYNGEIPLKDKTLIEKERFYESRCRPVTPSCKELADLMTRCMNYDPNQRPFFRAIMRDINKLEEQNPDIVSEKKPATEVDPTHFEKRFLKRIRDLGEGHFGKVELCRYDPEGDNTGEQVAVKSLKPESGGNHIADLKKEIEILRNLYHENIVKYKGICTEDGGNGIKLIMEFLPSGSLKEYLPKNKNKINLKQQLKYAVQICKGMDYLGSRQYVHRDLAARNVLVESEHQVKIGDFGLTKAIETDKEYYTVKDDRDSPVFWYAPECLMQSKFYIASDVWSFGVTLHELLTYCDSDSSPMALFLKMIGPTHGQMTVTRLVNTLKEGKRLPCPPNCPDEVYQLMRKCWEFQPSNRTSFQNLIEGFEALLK

JAK1 [2] = biological target: T1, JAK1; assay: TR-FRET STAT3 phosphorylation assay, JAK1; settings: read-out: IC50 JAK1, 10 μM ATP, GFP-STAT3
JAK1 [3] = biological target: T1, JAK1; assay: IL-6-induced pSTAT3 in primary CD4+ cells; type: cell-based; settings: read-out: IC50 JAK1, pSTAT (primary cells), IL-6, pSTAT3
JAK3 [4] = biological target: T2, JAK3 (Homo sapiens, UniProt P52333); assay: TR-FRET STAT3 phosphorylation assay, JAK3; settings: read-out: IC50 JAK3, 10 μM ATP, GFP-STAT3
T2 sequence (P52333 1-1124): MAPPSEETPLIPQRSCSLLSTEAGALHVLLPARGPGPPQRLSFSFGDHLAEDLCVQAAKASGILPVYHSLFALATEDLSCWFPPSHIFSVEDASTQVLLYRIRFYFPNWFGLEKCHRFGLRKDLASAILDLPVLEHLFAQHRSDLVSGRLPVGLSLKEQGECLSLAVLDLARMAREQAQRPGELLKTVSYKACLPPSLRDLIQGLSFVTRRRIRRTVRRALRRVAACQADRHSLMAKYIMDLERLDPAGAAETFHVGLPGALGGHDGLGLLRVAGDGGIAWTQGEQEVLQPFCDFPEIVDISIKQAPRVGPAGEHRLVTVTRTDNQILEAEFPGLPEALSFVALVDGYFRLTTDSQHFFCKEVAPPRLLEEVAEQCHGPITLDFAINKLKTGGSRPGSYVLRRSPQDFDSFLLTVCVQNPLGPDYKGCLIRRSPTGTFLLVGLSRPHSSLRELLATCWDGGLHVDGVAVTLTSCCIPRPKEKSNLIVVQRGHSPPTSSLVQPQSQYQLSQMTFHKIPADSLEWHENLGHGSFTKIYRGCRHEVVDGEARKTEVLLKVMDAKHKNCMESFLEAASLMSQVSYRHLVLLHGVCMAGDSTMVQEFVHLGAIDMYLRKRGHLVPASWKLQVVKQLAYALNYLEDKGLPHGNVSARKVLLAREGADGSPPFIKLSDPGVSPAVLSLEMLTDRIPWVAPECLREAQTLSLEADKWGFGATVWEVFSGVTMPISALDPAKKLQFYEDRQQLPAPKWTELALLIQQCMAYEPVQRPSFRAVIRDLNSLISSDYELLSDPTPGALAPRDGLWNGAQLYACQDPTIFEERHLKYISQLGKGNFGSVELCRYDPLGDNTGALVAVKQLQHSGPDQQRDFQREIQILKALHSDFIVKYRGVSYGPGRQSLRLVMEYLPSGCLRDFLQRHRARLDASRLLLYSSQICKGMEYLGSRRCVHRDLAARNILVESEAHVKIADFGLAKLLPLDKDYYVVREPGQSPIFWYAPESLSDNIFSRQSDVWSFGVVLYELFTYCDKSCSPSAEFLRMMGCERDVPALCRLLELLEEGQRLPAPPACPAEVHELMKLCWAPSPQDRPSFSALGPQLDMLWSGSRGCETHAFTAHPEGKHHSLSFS

non-JAK kinases = assay: Kinome analysis; type: biochemical; settings: 100 nM
Splenic CD4+ cells = assay: T helper cell development; type: cell-based, mouse; settings: 1 μM, 4 days; for IFN-γ production in Th1 cells: Th1 conditions; for IL-4 in Th2 cultures: Th2 conditions; for Foxp3+ cells under Th17-skewing conditions / percent of IL-17+ cells: Th17-skewing conditions; for development of iTregs: iTreg conditions
IL-22 signaling [5] = assay: IL-22-induced pSTAT3 in HT-29 cells; type: cell-based, human
IL-12 signaling = assay: IL-12-induced IFN-γ production in PBMCs; type: cell-based; settings: human PBMCs, 10 ng/mL IL-12, 24 hours
JAK3 [6] = biological target: T2, JAK3; assay: 33P-ATP kinase assay, JAK3; type: biochemical; settings: read-out: IC50 JAK3; 33P-ATP assay, 10 μM ATP
TYK2 [7] = biological target: T3, TYK2 (Homo sapiens, UniProt P29597); assay: IL-12-induced pSTAT4 in primary CD4+ cells; type: cell-based; settings: read-out: IC50 TYK2, pSTAT (primary cells), IL-12, pSTAT4
T3 sequence (P29597 whole entry): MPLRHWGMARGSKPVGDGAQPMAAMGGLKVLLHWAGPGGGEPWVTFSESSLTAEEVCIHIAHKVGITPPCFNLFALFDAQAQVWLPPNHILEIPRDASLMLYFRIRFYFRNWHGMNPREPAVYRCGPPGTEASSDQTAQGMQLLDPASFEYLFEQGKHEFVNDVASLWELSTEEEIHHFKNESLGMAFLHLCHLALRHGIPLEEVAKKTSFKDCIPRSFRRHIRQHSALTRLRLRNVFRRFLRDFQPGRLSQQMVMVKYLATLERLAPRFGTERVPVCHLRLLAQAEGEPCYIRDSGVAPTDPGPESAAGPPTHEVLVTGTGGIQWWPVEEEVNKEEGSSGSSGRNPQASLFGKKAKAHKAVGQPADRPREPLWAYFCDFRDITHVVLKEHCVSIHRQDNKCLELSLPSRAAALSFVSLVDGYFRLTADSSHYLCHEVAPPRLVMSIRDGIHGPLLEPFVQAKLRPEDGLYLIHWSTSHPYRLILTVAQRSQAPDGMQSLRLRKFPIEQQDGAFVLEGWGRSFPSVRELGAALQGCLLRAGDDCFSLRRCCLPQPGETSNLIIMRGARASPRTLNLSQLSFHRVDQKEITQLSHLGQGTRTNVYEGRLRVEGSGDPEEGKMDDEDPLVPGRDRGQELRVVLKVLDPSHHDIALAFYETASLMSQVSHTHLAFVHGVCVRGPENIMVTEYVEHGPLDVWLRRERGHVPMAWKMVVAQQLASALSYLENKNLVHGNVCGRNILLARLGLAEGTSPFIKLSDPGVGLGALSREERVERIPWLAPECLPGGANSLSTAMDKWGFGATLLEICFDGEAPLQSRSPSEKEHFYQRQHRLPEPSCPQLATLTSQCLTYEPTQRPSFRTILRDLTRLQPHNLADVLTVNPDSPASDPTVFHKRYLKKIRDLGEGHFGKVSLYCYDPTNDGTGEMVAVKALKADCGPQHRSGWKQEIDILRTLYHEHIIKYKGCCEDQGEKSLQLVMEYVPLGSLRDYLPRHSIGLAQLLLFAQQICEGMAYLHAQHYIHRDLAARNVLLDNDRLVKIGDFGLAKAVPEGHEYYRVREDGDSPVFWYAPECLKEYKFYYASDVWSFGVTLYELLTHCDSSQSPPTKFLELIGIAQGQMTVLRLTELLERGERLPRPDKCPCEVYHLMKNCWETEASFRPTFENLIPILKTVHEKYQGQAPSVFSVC

TYK2 [8] = biological target: T3, TYK2; assay: TR-FRET STAT3 phosphorylation assay, TYK2; settings: read-out: IC50 TYK2, 10 μM ATP, GFP-STAT3
TYK2 [9] = biological target: T3, TYK2; assay: 33P-ATP kinase assay, TYK2; type: biochemical; settings: read-out: IC50 TYK2; 33P-ATP assay, 10 μM ATP
IL-22 signaling [10] = assay: IL-22-induced Serum Amyloid A; type: in vivo, mouse; settings: 50 mg/kg p.o., C57BL/6 mice, 10 μg IL-22, 6 hours, vs vehicle
JAK3 [11] = biological target: T2, JAK3; assay: IL-2-induced pSTAT5 in PBMCs; type: cell-based; settings: read-out: IC50 JAK3, pSTAT (primary cells), IL-2, pSTAT5
[12] = In vivo pharmacokinetics in CD-1 mice; set-up: species or system mouse; settings: for Cmax or Co: CD-1 mice
JAK1 [13] = biological target: T1, JAK1; assay: IL-6-induced pSTAT3 in TF-1 cells; type: cell-based; settings: read-out: IC50 JAK1, pSTAT (cell lines), IL-6, pSTAT3
TYK2 [14] = biological target: T3, TYK2; assay: IL-12-induced pSTAT4 in NK-92 cells; type: cell-based; settings: read-out: IC50 TYK2, pSTAT (cell lines), IL-12, pSTAT4
[15] = tested on: imiquimod-induced dermatitis; assay: Imiquimod-induced psoriasis-like dermatitis; type: in vivo
[16] = Mouse liver microsome stability; type: in vitro ADME; settings: 0.5 μM
Caco-2 permeability = type: in vitro ADME; settings: 5 μM, pH 7.4
IL-12 signaling in vivo = assay: IL-12/IL-18-induced serum IFN-γ in vivo; set-up: species or system mouse; settings: 60 mg/kg, 30 minutes prior to IL-12/IL-18, vs vehicle
[17] = 50 mg/kg p.o. twice daily, back skin
[18] = 50 mg/kg, qPCR, vs wild type and TYK2 mutant mice

For `NC(=O)c1nc(-c2c(F)cccc2Cl)oc1Nc1ccc(C(=O)N2CCOCC2)cc1` [SAR-20347], the “CD4+ T cell proliferation” value (CD4+ T cells) was “inhibited proliferation to a comparable extent”, the “doses significantly decreasing proliferation compared to 0 μM (DMSO)” value (CD4+ T cells; two-way ANOVA) was ≥ 0.315 µM and the “inhibition of SEAP production” value (IFN-α signaling) was “dose-dependently inhibited the production of SEAP”. The IC50 (JAK1 [1]) was 23 ± 19 nM, the IC50 (JAK1 [2]) was 59 ± 43 nM and the IC50 (JAK1 [3]) was 423 nM. The IC50 (JAK3 [4]) was 1440 ± 630 nM, the “inhibitory activity towards non-JAK kinases” value (non-JAK kinases) was “comparable to the previously established values for tofacitinib and ruxolitinib” and the “IFN-γ production in Th1 cells” value (Splenic CD4+ cells) was “potently blocked IFN-γ production”. The “IL-4 in Th2 cultures” value (Splenic CD4+ cells) was “capable of reducing IL-4”, the “Foxp3+ cells under Th17-skewing conditions” value (Splenic CD4+ cells) was “dramatic increase in Foxp3+ cells” and the “percent of IL-17+ cells” value (Splenic CD4+ cells) was “reduces the percent of IL-17+cells”. For the same compound, the “development of iTregs” value (Splenic CD4+ cells) was “did not alter the development of iTregs”, the “inhibition of STAT3 phosphorylation” value (IL-22 signaling [5]; 10 μM) was 94% and the IC50 (IL-22 signaling [5]; read-out: IC50 IL-22-induced pSTAT3, 10 ng/mL IL-22, 15 minutes) was 148 nM. For the same compound, the “inhibition of IL-12 induced IFN-γ production” value (IL-12 signaling) was “dose-dependent inhibition of IFN-γ production; also recorded: complete inhibition”, the IC50 (JAK3 [6]) was 41 ± 11 nM and the IC50 (TYK2 [7]) was 107 nM. The IC50 (TYK2 [8]) was 13 ± 3 nM, the IC50 (TYK2 [9]) was 0.6 ± 0.1 nM and the “decrease of SAA levels” value (IL-22 signaling [10]) was 45%. The IC50 (JAK3 [11]) was 1610 nM, the AUC0-8h ([12]; 1 mg/kg (i.v.)) was 305 ng/h/mL and the Cl ([12]; 1 mg/kg (i.v.)) was 52 mL/min/kg and 52.1 mL/min/kg. For the same compound, the T1/2 ([12]; 1 mg/kg (i.v.)) was 162 min, the “Cmax or Co” value ([12]; 1 mg/kg (i.v.)) was 433 ng/mL and the AUC0-8h ([12]; 10 mg/kg (p.o.)) was 2131 ng/h/mL. The F ([12]; 10 mg/kg (p.o.)) was 69.8%, the T1/2 ([12]; 10 mg/kg (p.o.)) was 144 min and the Tmax ([12]; 10 mg/kg (p.o.)) was 24 min. For the same compound, the “Cmax or Co” value ([12]; 10 mg/kg (p.o.)) was 1343 ng/mL, the AUC0-8h ([12]; 50 mg/kg (p.o.)) was 18740 ng/h/mL and the T1/2 ([12]; 50 mg/kg (p.o.)) was 168 min. The Tmax ([12]; 50 mg/kg (p.o.)) was 30 min, the “Cmax or Co” value ([12]; 50 mg/kg (p.o.)) was 6273 ng/mL and the “maximum serum concentration (Tmax)” value ([12]; mice) was 30 min. The IC50 (JAK1 [13]) was 345 nM, the IC50 (TYK2 [14]) was 126 nM and the gross toxicity ([15]; 50 mg/kg p.o. twice daily) was “no gross toxicity”. The Ki67 staining [15, 17] was “significantly reduced”, the histological score [15, 17] was “significantly reduced” and the keratinocyte cell numbers [15, 17] was “significantly reduced”. For the same compound, the “scaling and redness (clinical score)” value ([15]; 50 mg/kg p.o. twice daily, vs TYK2 mutant or vehicle-treated wild type mice) was “markedly reduced scaling and redness”, the “IL-2 expression levels in the skin” value ([15]; 50 mg/kg, qPCR) was “did not affect” and the “IL-10 expression levels in the skin” value ([15]; 50 mg/kg, qPCR) was “did not affect”. For the same compound, the “S100A8 gene expression in the skin” value ([15]; 50 mg/kg, qPCR) was “significantly decreased”, the “S100A9 gene expression in the skin” value ([15]; 50 mg/kg, qPCR) was “significantly decreased” and the “defensin β1 gene expression in the skin” value ([15]; 50 mg/kg, qPCR) was “significantly decreased”. For the same compound, the “IL-6 mRNA expression in the skin” value [15, 18] was “significantly reduced expression”, the “IL-17 mRNA expression in the skin” value [15, 18] was “significantly reduced expression” and the “IL-20 mRNA expression in the skin” value [15, 18] was “significantly reduced expression”. The “IL-22 mRNA expression in the skin” value [15, 18] was “significantly reduced expression”, the “IL-23 mRNA expression in the skin” value [15, 18] was “significantly reduced expression” and the “TNF mRNA expression in the skin” value [15, 18] was “significantly reduced expression”. For the same compound, the “IL-17 production (average signal intensity)” value ([15]; 50 mg/kg, skin IHC) was “significantly reduced IL-17 production”, the “Vγ3 expression (average signal intensity)” value ([15]; 50 mg/kg, skin IHC) was “significantly lower” and the “number of CD4+ cells in skin” value ([15]; 50 mg/kg, skin IHC) was “not affected”. For the same compound, the “clearance rate in mouse liver microsomes” value [16] was 26 µL/min/mg, the “half-life in mouse liver microsomes” value [16] was 52.7 min and the “Caco-2 AB: BA” value (Caco-2 permeability) was 1.3. The Caco-2 permeability (Caco-2 permeability) was “good permeability” and the “inhibition of production of IFN-γ in the serum” value (IL-12 signaling in vivo) was 91%.

With `C[C@@H]1CCN(C(=O)CC#N)C[C@@H]1N(C)c1ncnc2[nH]ccc12` [Tofacitinib, reference compound] the “IFN-γ production in Th1 cells” value (Splenic CD4+ cells) was “potently blocked IFN-γ production”, the “IL-4 in Th2 cultures” value (Splenic CD4+ cells) was “capable of reducing IL-4” and the “Foxp3+ cells under Th17-skewing conditions” value (Splenic CD4+ cells) was “no effect on Th17 skewing or change in the number of Foxp3+ cells”. The “percent of IL-17+ cells” value (Splenic CD4+ cells) was “no effect on Th17 skewing” and the “development of iTregs” value (Splenic CD4+ cells) was “significantly reduced iTreg development”.
